Source: publication PMC10822852, “Structural and biochemical insights into the mechanism of the Gabija bacterial immunity system” (Nature Communications, 2024)

B1: GajA (enzyme, Bacillus cereus VD045, UniProt J8H9C1 1-578, looked up)
chain: MKFSNITIKNFRNFEKVNINLDNKNVIFGMNDIGKTNFLYALRFLLDKEIRKFGFNKSDYHKHDTSKKIEIILTLDLSNYEKDEDTKKLISVVKGARTSANADVFYIALESKYDDKELYGNIILKWGSELDNLIDIPGRGNINALDNVFKVIYINPLVDLDKLFAQNKKYIFEESQGNESDEGILNNIKSLTDQVNQQIGEMTIIKGFQQEITSEYRSLKKEEVSIELKSEMAIKGFFSDIIPYIKKDGDSNYYPTSGDGRRKMLSYSIYNYLAKKKYEDKIVIYLIEEPEISLHRSMQIALSKQLFEQSTYKYFFLSTHSPELLYEMDNTRLIRVHSTEKVVCSSHMYNVEEAYGSVKKKLNKALSSALFAERVLLIEGPSEKILFEKVLDEVEPEYELNGGFLLEVGGTYFNHYVCTLNDLGITHIIKTDNDLKSKKGKKGVYELLGLNRCLNLLGRENLDEITIDIPEDIKGKKKKERLNERKKEIFKQYKNEVGEFLGERIYLSEIDLENDLYSAIGESMKRIFENEDPVHYLQKSKLFNMVELVNNLSTKDCFDVFEHEKFACLKELVGSDRG
notes: OLD family nuclease with ATPase domain (1-351) and Toprim domain (352-578); The methods describe only the co-expression and purification of the complex; Cloned into PET-52b; also called GajA1; GajA2; source: E. coli BL21 (DE3), purified (Strep-tactin Sepharose, Superdex 200); co-expressed with GajB for the Gabija complex

Columns and labels:
[1] = target: T1, Gabija complex (GajA and GajB) (Bacillus cereus, UniProt J8H9C1+J8HQ06); assay: inhibition of DNA cleavage, agarose gel; format: biochemical; details: 1 mM MgCl2, pH 9, 37 °C, 5 min
T1 construct: full-length GajA (1-578, Strep-tag II) co-expressed with full-length GajB (1-493, 6xHis) in E. coli BL21(DE3); hetero-octamer 4:4
T1 sequence (J8HQ06 1-493, one chain of several): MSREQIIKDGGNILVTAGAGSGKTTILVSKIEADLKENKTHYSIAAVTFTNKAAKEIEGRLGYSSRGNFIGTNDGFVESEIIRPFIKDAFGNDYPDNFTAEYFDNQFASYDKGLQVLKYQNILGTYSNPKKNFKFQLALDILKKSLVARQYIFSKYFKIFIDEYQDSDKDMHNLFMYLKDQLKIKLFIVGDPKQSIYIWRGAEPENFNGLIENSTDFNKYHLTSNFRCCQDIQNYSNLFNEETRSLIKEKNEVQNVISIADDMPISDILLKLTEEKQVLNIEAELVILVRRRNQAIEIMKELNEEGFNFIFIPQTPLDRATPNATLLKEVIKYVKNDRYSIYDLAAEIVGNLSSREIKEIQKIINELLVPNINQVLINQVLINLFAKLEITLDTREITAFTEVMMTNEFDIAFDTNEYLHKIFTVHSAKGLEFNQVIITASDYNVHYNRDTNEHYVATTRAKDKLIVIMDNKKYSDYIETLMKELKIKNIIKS

[2] = target: the molecule itself; assay: SEC-MALS; Superdex 200 10/300 Increase, samples injected at 1 mg/ml in Buffer B (10 mM Tris-HCl pH 7.5, 300 mM NaCl, 2 mM DTT), 0.5 ml/min; GajA, GajB and the co-purified Gabija complex

Row | Molecule | inhibition of DNA cleavage, agarose gel ([1]; supercoiled pUC19-15 plasmid) | other results
1 | Nc1ncnc2c1ncn2[C@@H]1O[C@H](COP(=O)(O)OP(=O)(O)O)[C@@H](O)[C@H]1O [ADP] | significantly inhibited by different NTP, dNTP, ADP, but not AMP | 
2 | Nc1ncnc2c1ncn2[C@@H]1O[C@H](COP(=O)(O)OP(=O)(O)NP(=O)(O)O)[C@@H](O)[C@H]1O [AMP-PNP] |  | inhibition of DNA cleavage, agarose gel ([1]; non-hydrolysable ATP analogue, DNA substrate not given): cleavage activity of the Gabija complex is also inhibited by AMP-PNP
3 | Nc1nc2c(ncn2[C@@H]2O[C@H](COP(=O)(O)OP(=O)(O)OP(=O)(O)O)[C@@H](O)[C@H]2O)c(=O)[nH]1 [GTP] | significantly inhibited with the increased concentration of ATP and GTP | 
4 | B1 |  | stoichiometry N [2]: 4
